Test results as given in EPA's CvTdb concentration-time database (doi:10.1093/toxsci/kfy020).

Legend:
Test in all cases: concentration in plasma after dosing
[1] = tested on: rat; settings: dosed: Diazinon-o-analog, 1.02 mg/kg, iv, male, Sprague-Dawley
[2] = tested on: rat; settings: dosed: Diazinon-o-analog, 5.02 mg/kg, oral, male, Sprague-Dawley
[3] = tested on: rat; settings: male, Sprague-Dawley
[4] = tested on: rat; settings: dosed: Diazinon-o-analog, 1.02 mg/kg, iv, male, Sprague-Dawley; remark: listed apart in the source
[5] = tested on: rat; settings: dosed: Diazinon-o-analog, 5.02 mg/kg, oral, male, Sprague-Dawley; remark: listed apart in the source
[6] = tested on: rat; settings: dosed: Flufenacet, 1.0 mg/kg, iv, male, Sprague-Dawley
[7] = tested on: rat; settings: dosed: Flufenacet, 5.2 mg/kg, oral, male, Sprague-Dawley
[8] = tested on: rat; settings: dosed: Flufenacet, 5.2 mg/kg, oral, male, Sprague-Dawley; remark: listed apart in the source
[9] = tested on: rat; settings: dosed: Flufenacet, 1.0 mg/kg, iv, male, Sprague-Dawley; remark: listed apart in the source
[10] = tested on: rat; settings: dosed: Imidacloprid, 5.0000000000 mg/kg, oral, male, Sprague-Dawley
[11] = tested on: rat; settings: dosed: Imidacloprid, 5.0000000000 mg/kg, iv, male, Sprague-Dawley
[12] = tested on: rat; settings: dosed: Imidacloprid, 5.0000000000 mg/kg, iv, male, Sprague-Dawley; remark: listed apart in the source
[13] = tested on: rat; settings: dosed: Imidacloprid, 5.0000000000 mg/kg, iv, male, Sprague-Dawley; remark: listed apart in the source
[14] = tested on: rat; settings: dosed: Imidacloprid, 5.0000000000 mg/kg, oral, male, Sprague-Dawley; remark: listed apart in the source
[15] = tested on: rat; settings: dosed: Imidacloprid, 5.0000000000 mg/kg, oral, male, Sprague-Dawley; remark: listed apart in the source

CCOP(=O)(OCC)Oc1cc(C)nc(C(C)C)n1 [Diazinon-o-analog]
concentration in plasma [ng/mL]
Settings | [1] | [2] | [4] | [5]
0.167 h | 337 | – | 374 | –
0.25 h | – | 1220 | – | 1780
0.5 h | 349 | 1070 | 1340 | 330
1 h | 440 | 1060 | 413 | 1040
2 h | 294 | 948 | 286 | 786
4 h | 155 | 784 | 188 | 745
5 min | 214 | – | 247 | –
8 h | 59.5 | 292 | 60.9 | 316
24 h | 0.498 | 4.31 | 0.552 | 5.04
48 h | – | 0.116 | 0.0484 | 0.193
72 h | 0.247 | 1.21 | – | 3.73

[3], dosed: Diazinon-o-analog
Settings | concentration in plasma [ng/mL]
0.167 h, 1.02 mg/kg, iv | 596
0.25 h, 5.02 mg/kg, oral | 916
0.5 h, 1.02 mg/kg, iv | 597
0.5 h, 5.02 mg/kg, oral | 846
1 h, 1.02 mg/kg, iv | 356
1 h, 5.02 mg/kg, oral | 1180
2 h, 1.02 mg/kg, iv | 271
2 h, 5.02 mg/kg, oral | 1140
4 h, 1.02 mg/kg, iv | 174
4 h, 5.02 mg/kg, oral | 715
5 min, 1.02 mg/kg, iv | 564
8 h, 1.02 mg/kg, iv | 57.9
8 h, 5.02 mg/kg, oral | 298
24 h, 1.02 mg/kg, iv | 1.14
24 h, 5.02 mg/kg, oral | 2.63
48 h, 5.02 mg/kg, oral | 1.84
72 h, 1.02 mg/kg, iv | 0.481
72 h, 5.02 mg/kg, oral | 0.239

CC(C)N(C(=O)COc1nnc(C(F)(F)F)s1)c1ccc(F)cc1 [Flufenacet]
concentration in plasma [ng/mL]
Settings | [6] | [7] | [8] | [9]
0.167 h | 52.4 | – | – | 80.7
0.25 h | – | 2.17 | 0.708 | –
0.5 h | 8.65 | 1.32 | 0.41 | 13.7
1 h | 4.31 | 0.462 | 0.274 | 1.82
2 h | 3.42 | 0.22 | 0.256 | 0.896
4 h | 2.88 | 0.135 | 0.199 | 0.328
5 min | 128 | – | – | 195
8 h | 0.0986 | 0.116 | 0.15 | 0.0709
24 h | 0.044 | 0.0179 | 0.0249 | 0.0595
48 h | 0.026 | 0.0128 | 0.017 | 0.0264
72 h | 0.0121 | 0.0208 | 0.0224 | 0.0353

[3], dosed: Flufenacet
Settings | concentration in plasma [ng/mL]
0.167 h, 1.0 mg/kg, iv | 20.4
0.25 h, 5.2 mg/kg, oral | 0.81
0.5 h, 1.0 mg/kg, iv | 4.05
0.5 h, 5.2 mg/kg, oral | 0.401
1 h, 1.0 mg/kg, iv | 3.72
1 h, 5.2 mg/kg, oral | 0.451
2 h, 1.0 mg/kg, iv | 1.81
2 h, 5.2 mg/kg, oral | 0.188
4 h, 1.0 mg/kg, iv | 2.03
4 h, 5.2 mg/kg, oral | 0.146
5 min, 1.0 mg/kg, iv | 48.6
8 h, 1.0 mg/kg, iv | 2.1
8 h, 5.2 mg/kg, oral | 0.0824
24 h, 1.0 mg/kg, iv | 0.0352
24 h, 5.2 mg/kg, oral | 0.0158
48 h, 1.0 mg/kg, iv | 0.0229
48 h, 5.2 mg/kg, oral | 0.0322
72 h, 1.0 mg/kg, iv | 0.0508
72 h, 5.2 mg/kg, oral | 0.0214

O=[N+]([O-])/N=C1\NCCN1Cc1ccc(Cl)nc1 [Imidacloprid]
concentration in plasma [ng/mL]
Settings | [10] | [11] | [12] | [13] | [14] | [15]
0.25 h | 831 | – | – | – | 1770 | 4410
0.5 h | 935 | 382 | 743 | 1140 | 2660 | 4310
1 h | 1930 | 560 | 603 | 922 | 2670 | 6030
2 h | 2060 | 694 | 786 | 626 | 2380 | 3400
4 h | 2620 | 548 | 552 | 478 | 1990 | 2480
5 min | – | 217 | 786 | 1260 | – | –
8 h | 2950 | 170 | 232 | 191 | 648 | 2670
10 min | – | 328 | 683 | 1500 | – | –
12 h | 1200 | 67 | 141 | 67.5 | 278 | 1520
24 h | 279 | 8.54 | 14 | 8.66 | 46 | 259
48 h | 17.9 | – | 2.12 | – | 14.5 | 33.6
72 h | 13.2 | 2.49 | – | – | 8.76 | –

concentration in plasma [ng/mL], [3], dosed: Imidacloprid, 5.0000000000 mg/kg
Settings | iv | oral
0.25 h | – | 1600
0.5 h | 971 | 2290
1 h | 683 | 1550
2 h | 943 | 2920
4 h | 695 | 2610
5 min | 1190 | –
8 h | 327 | 2330
10 min | 1260 | –
12 h | 233 | 1360
24 h | 17.6 | 171
48 h | 2.89 | 19.7
72 h | – | 6.62
